Measured values as given in patent US9371331B2, “Modulators of methyl modifying enzymes, compositions and uses thereof” (Constellation Pharmaceuticals, Inc., priority 2012, dated 2016).
Counter-ions that a name gives are not always drawn. Like-named read-outs stand apart in the source and are kept apart here.

How the values were obtained:
[1] = target: EZH2 (rPRC2) (Homo sapiens, UniProt Q15910); test: EZH2 assay: rPRC2, biotinylated oligonucleosomes, 3H SAM methyl transfer (FlashPlate scintillation); type: biochemical; conditions: biotinylated oligonucleosome substrate
[2] = target: Y641N EZH2 (Homo sapiens, UniProt Q15910, Y641N); test: Y641N EZH2 assay: as EZH2 assay, with reconstituted H3K27Me2 oligonucleosomes as substrate; type: biochemical
[3] = wild-type EZH2 (rPRC2), read-out: EZH2 IC50
[4] = Y641N mutant EZH2, H3K27Me2 oligonucleosome substrate, read-out: Y641N EZH2 IC50
[5] = EZH2 IC50, wild-type EZH2 (rPRC2)
[6] = Y641N EZH2 IC50, Y641N mutant EZH2, H3K27Me2 oligonucleosome substrate
[7] = Y641N mutant EZH2, H3K27Me2 oligonucleosome substrate

Y641N EZH2, sequence (Q15910 whole entry Y641N): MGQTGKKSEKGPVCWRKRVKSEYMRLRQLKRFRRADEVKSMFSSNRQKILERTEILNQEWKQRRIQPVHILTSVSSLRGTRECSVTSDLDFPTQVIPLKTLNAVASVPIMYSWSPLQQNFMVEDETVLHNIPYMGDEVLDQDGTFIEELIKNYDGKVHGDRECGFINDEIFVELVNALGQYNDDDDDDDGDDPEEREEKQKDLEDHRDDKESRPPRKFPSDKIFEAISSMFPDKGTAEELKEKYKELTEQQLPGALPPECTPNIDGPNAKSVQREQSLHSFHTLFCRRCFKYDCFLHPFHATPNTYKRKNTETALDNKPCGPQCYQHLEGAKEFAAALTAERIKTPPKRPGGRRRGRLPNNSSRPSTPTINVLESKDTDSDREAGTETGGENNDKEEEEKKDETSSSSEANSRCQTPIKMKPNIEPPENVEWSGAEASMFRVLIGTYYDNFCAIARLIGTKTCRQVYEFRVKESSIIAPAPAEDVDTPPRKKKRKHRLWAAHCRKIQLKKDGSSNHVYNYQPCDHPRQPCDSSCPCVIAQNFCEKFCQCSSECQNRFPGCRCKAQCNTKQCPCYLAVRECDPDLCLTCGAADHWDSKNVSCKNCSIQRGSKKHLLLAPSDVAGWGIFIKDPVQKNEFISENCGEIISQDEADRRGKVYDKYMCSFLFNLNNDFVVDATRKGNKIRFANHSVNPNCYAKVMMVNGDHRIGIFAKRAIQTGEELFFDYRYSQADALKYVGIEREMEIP
Y641N EZH2, sequence (O75530 whole entry partner): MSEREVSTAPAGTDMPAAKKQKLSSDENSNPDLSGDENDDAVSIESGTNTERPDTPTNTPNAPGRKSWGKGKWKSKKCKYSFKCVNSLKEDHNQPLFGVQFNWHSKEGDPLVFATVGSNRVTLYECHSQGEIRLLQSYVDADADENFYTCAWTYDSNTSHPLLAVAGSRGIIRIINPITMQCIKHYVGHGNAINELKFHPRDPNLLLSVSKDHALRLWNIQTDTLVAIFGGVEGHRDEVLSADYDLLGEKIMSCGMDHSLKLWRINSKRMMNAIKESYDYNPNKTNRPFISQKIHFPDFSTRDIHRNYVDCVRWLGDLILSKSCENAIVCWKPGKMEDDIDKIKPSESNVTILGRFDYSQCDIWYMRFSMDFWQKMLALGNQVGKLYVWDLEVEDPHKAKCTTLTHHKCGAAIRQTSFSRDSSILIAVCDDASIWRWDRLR
Y641N EZH2, sequence (Q15022 whole entry partner): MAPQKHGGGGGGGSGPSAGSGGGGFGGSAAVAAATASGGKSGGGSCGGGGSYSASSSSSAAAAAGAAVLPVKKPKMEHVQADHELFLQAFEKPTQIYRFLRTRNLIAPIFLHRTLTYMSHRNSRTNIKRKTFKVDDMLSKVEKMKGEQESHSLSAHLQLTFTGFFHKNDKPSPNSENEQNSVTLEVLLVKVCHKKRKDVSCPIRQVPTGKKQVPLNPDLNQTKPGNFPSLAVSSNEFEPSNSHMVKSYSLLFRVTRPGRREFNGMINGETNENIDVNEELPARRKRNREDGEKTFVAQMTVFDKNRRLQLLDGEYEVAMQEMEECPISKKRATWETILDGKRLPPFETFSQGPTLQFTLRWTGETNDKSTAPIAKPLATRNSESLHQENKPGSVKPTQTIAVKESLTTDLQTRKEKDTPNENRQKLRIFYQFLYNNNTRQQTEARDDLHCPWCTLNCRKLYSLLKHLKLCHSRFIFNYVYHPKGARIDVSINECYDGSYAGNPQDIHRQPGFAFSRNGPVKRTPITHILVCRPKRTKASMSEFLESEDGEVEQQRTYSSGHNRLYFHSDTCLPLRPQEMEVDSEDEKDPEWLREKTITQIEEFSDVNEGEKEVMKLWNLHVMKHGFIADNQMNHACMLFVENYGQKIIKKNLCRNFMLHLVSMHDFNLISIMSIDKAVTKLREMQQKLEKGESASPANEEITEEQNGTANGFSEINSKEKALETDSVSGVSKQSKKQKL
EZH2 (rPRC2), sequence (Q15910 whole entry): as the sequence (Q15910 whole entry Y641N) above, with N641Y counted along it
EZH2 (rPRC2), sequence (O75530 whole entry partner): as the sequence (O75530 whole entry partner) above
EZH2 (rPRC2), sequence (Q15022 whole entry partner): as the sequence (Q15022 whole entry partner) above

Row | Compound | IC50 [1, 5] | IC50 [2, 6] | other results
1 | COc1cc(C)[nH]c(=O)c1CNC(=O)c1c(C)n(C(C)C(C)OC)c2ncccc12 (single isomer, unassigned) [Compound 267, N-((4-methoxy-6-methyl-2-oxo-1,2-dihydropyridin-3-yl)methyl)-1-((2R or 2S, 3R or 3S)-3-methoxybutan-2-yl)-2-methyl-1H-pyrrolo[2,3-b]pyridine-3-carboxamide] | – | – | IC50 [1, 3]: < 100 nM; IC50 [2, 4]: 100 to 1000 nM
2 | COc1cc(C)[nH]c(=O)c1CNC(=O)c1c(C)n(C(C)c2ccn(C)c(=O)c2)c2ncccc12 (single isomer, unassigned) [Compound 269, (R or S)-N-((4-methoxy-6-methyl-2-oxo-1,2-dihydropyridin-3-yl)methyl)-2-methyl-1-(1-(1-methyl-2-oxo-1,2-dihydropyridin-4-yl)ethyl)-1H-pyrrolo[2,3-b]pyridine-3-carboxamide] | 100 to 1000 nM | 1000 to 10000 nM | –
3 | CCC(C)n1c(C)c(C(=O)NCc2c(C)cc(C)[nH]c2=O)c2cccnc21 (single isomer, unassigned) [Compound 195, (R or S)-1-(sec-butyl)-N-((4,6-dimethyl-2-oxo-1,2-dihydropyridin-3-yl)methyl)-2-methyl-1H-pyrrolo[2,3-b]pyridine-3-carboxamide] | 100 to 1000 nM | – | Y641N EZH2 IC50 [2, 7]: *(0.5 μM)
4 | Cc1cc(C)c(CNC(=O)c2c(C)n(C(C)c3cccc(C(N)=O)c3)c3ccccc23)c(=O)[nH]1 (single isomer, unassigned) [Compound 226, (R or S)-1-(1-(3-carbamoylphenyl)ethyl)-N-((4,6-dimethyl-2-oxo-1,2-dihydropyridin-3-yl)methyl)-2-methyl-1H-indole-3-carboxamide] | 100 to 1000 nM | 1000 to 10000 nM | –
5 | Cc1cc(C)c(CNC(=O)c2c(C)n([C@H](C)c3ccccc3)c3nc(Cl)ncc23)c(O)n1 [Compound 167] | 100 to 1000 nM | 100 to 1000 nM | –
6 | Cc1cc(C)c(CNC(=O)c2c(C)n(C(C)c3ccccc3)c3cnccc23)c(=O)[nH]1 (single isomer, unassigned) [Compound 248, (R or S)—N-((4,6-dimethyl-2-oxo-1,2-dihydropyridin-3-yl)methyl)-2-methyl-1-(1-phenylethyl)-1H-pyrrolo[2,3-c]pyridine-3-carboxamide] | – | 100 to 1000 nM | IC50 ([1]; read-out: EZH2 IC50, wild-type EZH2 (rPRC2)): < 100 nM
7 | CC[C@@H](C)n1c(C)c(C(=O)NCc2c(C)cc(C)nc2O)c2cncnc21 [Compound 189, (R)-7-(sec-butyl)-N-((2-hydroxy-4,6-dimethylpyridin-3-yl)methyl)-6-methyl-7H-pyrrolo[2,3-d]pyrimidine-5-carboxamide] | 100 to 1000 nM | 1000 to 10000 nM | –
8 | Cc1cc(C)c(CNC(=O)c2c(C)n([C@H](C)c3ccccc3)c3nc(N4CCCC4)ncc23)c(O)n1 [Compound 142, (R)—N-((2-hydroxy-4,6-dimethylpyridin-3-yl)methyl)-6-methyl-7-(1-phenylethyl)-2-(pyrrolidin-1-yl)-7H-pyrrolo[2,3-d]pyrimidine-5-carboxamide] | 100 to 1000 nM | 1000 to 10000 nM | –
9 | COc1cc(C)[nH]c(=O)c1CNC(=O)c1c(C)n(C(C)CS(C)(=O)=O)c2ccccc12 (single isomer, unassigned) [Compound 278, (R or S)-N-((4-methoxy-6-methyl-2-oxo-1,2-dihydropyridin-3-yl)methyl)-2-methyl-1-(1-(methylsulfonyl)propan-2-yl)-1H-indole-3-carboxamide] | 100 to 1000 nM | 1000 to 10000 nM | –
10 | Cc1cc(C)c(COC(=O)c2c(C)n(C3CCc4ccccc43)c3ccccc23)c(=O)[nH]1 (single isomer, unassigned) [Compound 213, (R or S)-(4,6-dimethyl-2-oxo-1,2-dihydropyridin-3-yl)methyl 1-(2,3-dihydro-1H-inden-1-yl)-2-methyl-1H-indole-3-carboxylate] | < 100 nM | 100 to 1000 nM | –
11 | COc1cc(C)[nH]c(=O)c1CNC(=O)c1c(C)n([C@H](C)[C@H](OC)C2CC2)c2ncccc12 (single isomer, unassigned) [Compound 292, 1-((1R or S, 2R or S)-1-cyclopropyl-1-methoxypropan-2-yl)-N-((4-methoxy-6-methyl-2-oxo-1,2-dihydropyridin-3-yl)methyl)-2-methyl-1H-pyrrolo[2,3-b]pyridine-3-carboxamide] | < 100 nM | 100 to 1000 nM | –
12 | COc1cc(C)[nH]c(=O)c1CNC(=O)c1c(C)n(C(C)C(C)OC)c2ccccc12 (single isomer, unassigned) [Compound 307, Trans-(R or S, R or S)-N-((4-methoxy-6-methyl-2-oxo-1,2-dihydropyridin-3-yl)methyl)-1-(3-methoxybutan-2-yl)-2-methyl-1H-indole-3-carboxamide] | < 100 nM | < 100 nM | –
13 | COc1cc(C)[nH]c(=O)c1CNC(=O)c1c(C)n(C(C)[C@H]2CNCCO2)c2ncncc12 (stereo partly drawn) [Compound 351, N-((4-methoxy-6-methyl-2-oxo-1,2-dihydropyridin-3-yl)methyl)-6-methyl-7-(1-((R)-morpholin-2-yl)ethyl)-7H-pyrrolo[2,3-d]pyrimidine-5-carboxamide] | < 100 nM | 100 to 1000 nM | –
14 | COc1cc(C)[nH]c(=O)c1CNC(=O)c1c(C)n(C(C)CC#N)c2ncccc12 (racemic) [Compound 301, (±)-1-(1-cyanopropan-2-yl)-N-((4-methoxy-6-methyl-2-oxo-1,2-dihydropyridin-3-yl)methyl)-2-methyl-1H-pyrrolo[2,3-b]pyridine-3-carboxamide] | < 100 nM | 100 to 1000 nM | –
15 | Cc1cc(C)c(CNC(=O)c2c(C)n(C(C)C3CCN(C4CNC4)CC3)c3ccccc23)c(=O)[nH]1 (single isomer, unassigned) [Compound 376, (R or S)-1-(1-(1-(azetidin-3-yl)piperidin-4-yl)ethyl)-N-((4,6-dimethyl-2-oxo-1,2-dihydropyridin-3-yl)methyl)-2-methyl-1 H-indole-3-carboxamide hydrochloride] | < 100 nM | < 100 nM | –
16 | CC[C@@H](C)n1c(C)c(C(=O)NCc2c(C)cc(C)[nH]c2=O)c2cnc(C(=O)NC)nc21 [Compound 198, (R)-7-(sec-butyl)-N5-((4,6-dimethyl-2-oxo-1,2-dihydropyridin-3-yl)methyl)-N2,6-dimethyl-7H-pyrrolo[2,3-d]pyrimidine-2,5-dicarboxamidc] | – | – | IC50 [1, 3]: 1000 to 10000 nM; IC50 [2, 4]: 1000 to 10000 nM
17 | COc1cc(C)[nH]c(=O)c1CNC(=O)c1c(C)n(C2CCN(C(=O)OC(C)(C)C)CC2)c2ccccc12 [Compound 331, tert-butyl 4-(3-(((4-methoxy-6-methyl-2-oxo-1,2-dihydropyridin-3-yl)methyl)carbamoyl)-2-methyl-1H-indol-1-yl)piperidine-1-carboxylate] | < 100 nM | 100 to 1000 nM | –
18 | Cc1cc(C)c(CNC(=O)c2c(C)n(-c3cccc(C)c3C)c3ccccc23)c(=O)[nH]1 [Compound 173, N-((4,6-dimethyl-2-oxo-1,2-dihydropyridin-3-yl)methyl)-1-(2,3-dimethylphenyl)-2-methyl-1H-indole-3-carboxamide] | – | – | IC50 [1, 3]: < 100 nM; IC50 [2, 4]: 100 to 1000 nM
19 | CCOC(C)C(C)n1c(C)c(C(=O)NCc2c(OC)cc(C)[nH]c2=O)c2ccccc21 (racemic) [Compound 290, (±)-1-(3-ethoxybutan-2-yl)-N-((4-methoxy-6-methyl-2-oxo-1,2-dihydropyridin-3-yl)methyl)-2-methyl-1H-indole-3-carboxamide] | < 100 nM | 100 to 1000 nM | –
20 | Cc1cc(C)c(CNC(=O)c2c(C)n(C(C)C(C)(C)O)c3ncccc23)c(=O)[nH]1 (stereo not shown) [Compound 271, N-((4,6-dimethyl-2-oxo-1,2-dihydropyridin-3-yl)methyl)-1-(3-hydroxy-3-methylbutan-2-yl)-2-methyl-1H-pyrrolo[2,3-b]pyridine-3-carboxamide] | 1000 to 10000 nM | 1000 to 10000 nM | –
21 | Cc1cc(C)c(CNC(=O)c2c(C)n(C3CCOCC3)c3ncccc23)c(=O)[nH]1 [Compound 244, N-((4,6-dimethyl-2-oxo-1,2-dihydropyridin-3-yl)methyl)-2-methyl-1-(tetrahydro-2H-pyran-4-yl)-1H-pyrrolo[2,3-b]pyridine-3-carboxamide] | 100 to 1000 nM | 1000 to 10000 nM | –
22 | CC[C@@H](C)n1c(C)c(C(=O)NCc2c(C)cc(C)[nH]c2=O)c2cnc(C)nc21 [Compound 200, (R)-7-(sec-butyl)-N-((4,6-dimethyl-2-oxo-1,2-dihydropyridin-3-yl)methyl)-2,6-dimethyl-7H-pyrrolo[2,3-d]pyrimidine-5-carboxamide] | 100 to 1000 nM | 1000 to 10000 nM | –
23 | Cc1cc(C)c(CNC(=O)c2c(C)n(C(C)C3CC3)c3ncccc23)c(=O)[nH]1 (single isomer, unassigned) [Compound 252, (R or S)-(±)-1-(1-cyclopropylethyl)-N-((4,6-dimethyl-2-oxo-1,2-dihydropyridin-3-yl)methyl)-2-methyl-1H-pyrrolo[2,3-b]pyridine-3-carboxamide] | < 100 nM | 100 to 1000 nM | –
24 | (±)-N-((6-(hydroxymethyl)-4-methoxy-2-oxo-1,2-dihydropyridin-3-yl)methyl)-1-(1-methoxypropan-2-yl)-2-methyl-1H-pyrrolo[2,3-b]pyridine-3-carboxamide [Compound 262] | – | – | IC50 [1, 3]: 100 to 1000 nM; IC50 [2, 4]: 1000 to 10000 nM
25 | Cc1cc(C)c(CNC(=O)c2cnn(Cc3ccccc3)c2C)c(O)n1 [Compound 109, 1-benzyl-N-((2-hydroxy-4,6-dimethylpyridin-3-yl)methyl)-5-methyl-1H-pyrazole-4-carboxamide] | – | – | EZH2 IC50 ([1]; wild-type EZH2 (rPRC2)): *(10 μM); Y641N EZH2 IC50 [2, 7]: *(10 μM)
26 | CC[C@@H](C)n1c(C)c(C(=O)NCc2c(C)cc(C)[nH]c2=O)c2cnc(Cl)nc21 [Compound 184, (R)-7-(sec-butyl)-2-chloro-N-((4,6-dimethyl-2-oxo-1,2-dihydropyridin-3-yl)methyl)-6-methyl-7H-pyrrolo[2,3-d]pyrimidine-5-carboxamide] | 100 to 1000 nM | 1000 to 10000 nM | –
